For orientation: EC50 means the concentration needed to bring the measured effect to its halfway point. Broadly, the CC50 is the concentration at which the toxic effect on the cells reaches its halfway point. Read a low CC50 as greater toxicity to the cells.

The subject of one data set is HBV. The data set can be described thus: Anti-viral assay in HepG2.2.15 cells: HBV inhibitory activity (HBV DNA in culture medium by q-PCR). In kind it is cell-based. The note with it: Hepatitis B virus, HepG2.2.15, 144 h, HepG2.2.15 cells, 6 days treatment, HBV DNA in culture medium by q-PCR, highest concentration 10 uM; read-out: EC50. A digest of the protocol:
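HepG2.2.15 cells seeded at 40,000/well in 2% FBS medium, dosed next day for 6 days (medium refreshed once midway); 8-point 3-fold dilutions from 10 uM top. HBV DNA in culture medium extracted and quantified by q-PCR; EC50 calculated from dose-response.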

A short description of data set [1]: Cytotoxicity determination in HepG2.2.15 cells (CCK-8). In kind it is cell-based. The note with it: human, 6 days treatment, CCK-8, highest concentration 100 uM. A digest of the protocol: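 HepG2.2.15 cells seeded at 5,000 cells/well in 2% FBS medium and exposed to compounds for 6 days (medium refreshed once), 8 three-fold dilutions from 100 uM. Viability read by CCK-8 after 2.5 h at 37 °C, absorbance 450 nm with 630 nm reference; CC50 calculated.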

As for `COC(=O)C1=C(C2CCN(c3ncc([C@]4(O)C[C@@H](C(=O)O)C4)cn3)CC2)NC(c2nccs2)=NC1c1ccc(F)c(F)c1Cl` (single isomer, unassigned) [II-24-B, (cis)-3-(2-(4-(6-(2-chloro-3,4-difluorophenyl)-5-(methoxycarbonyl)-2-(thiazol-2-yl)-3,6-dihydropyrimidin-4-yl)piperidin-1-yl)pyrimidin-5-yl)-3-hydroxycyclobutanecarboxylic Acid], in the data set with HBV, the EC50 is below 0.0046 µM. In data set [1], this compound had a CC50 at 6 days of 11 µM.
For the compound `COC(=O)C1=C(C2CCN(c3ncc(C(=O)O)o3)CC2)NC(c2nccs2)=NC1c1ccc(F)c(F)c1Cl` (single isomer, unassigned) [II-25-B, 2-(4-(6-(2-Chloro-3,4-difluorophenyl)-5-(methoxycarbonyl)-2-(thiazol-2-yl)-3,6-dihydropyrimidin-4-yl)piperidin-1-yl)oxazole-5-carboxylic Acid], the EC50 in the data set with HBV is 0.054 µM. Besides, the CC50 at 6 days in data set [1] was 18.1 µM.
As to `COC(=O)C1=C(C2CCN(c3ncc(Cl)c(C(=O)O)n3)CC2)NC(c2nccs2)=NC1c1ccc(F)c(F)c1Cl` (single isomer, unassigned) [II-26-B, 5-Chloro-2-(4-(6-(2-chloro-3,4-difluorophenyl)-5-(methoxycarbonyl)-2-(thiazol-2-yl)-3,6-dihydropyrimidin-4-yl)piperidin-1-yl)pyrimidine-4-carboxylic Acid], the EC50 with HBV was 0.045 µM. Also, the midpoint of cytotoxicity in data set [1], the CC50 at 6 days, lay at 11.1 µM.
The matching figures for `COC(=O)C1=C(C2CCN(c3ncc(C)c(C(=O)O)n3)CC2)NC(c2nccs2)=NC1c1ccc(F)c(F)c1Cl` (single isomer, unassigned) [II-27-B, 2-(4-(6-(2-Chloro-3,4-difluorophenyl)-5-(methoxycarbonyl)-2-(thiazol-2-yl)-3,6-dihydropyrimidin-4-yl)piperidin-1-yl)-5-methylpyrimidine-4-carboxylic Acid]: 0.0055 µM and 20.2 µM.
`COC(=O)C1=C(C2CCN(c3ncc(CC(=O)O)c(C)n3)CC2)NC(c2nccs2)=NC1c1ccc(F)c(F)c1Cl` (single isomer, unassigned) [II-28-B, 2-(2-(4-(6-(2-Chloro-3,4-difluorophenyl)-5-(methoxycarbonyl)-2-(thiazol-2-yl)-3,6-dihydropyrimidin-4-yl)piperidin-1-yl)-4-methylpyrimidin-5-yl)acetic Acid]: the EC50 with HBV was below 0.0046 µM. Further, the CC50 at 6 days in data set [1] worked out at 5.33 µM.
As for `COC(=O)C1=C(C2CCN(c3ncc(CC(=O)O)cn3)CC2)NC(c2nccs2)=NC1c1ccc(F)c(F)c1Cl` (single isomer, unassigned) [II-29-B, 2-(2-(4-(6-(2-Chloro-3,4-difluorophenyl)-5-(methoxycarbonyl)-2-(thiazol-2-yl)-3,6-dihydropyrimidin-4-yl)piperidin-1-yl)pyrimidin-5-yl)acetic Acid], the EC50 with HBV is below 0.0046 µM. The same compound registered a CC50 at 6 days in data set [1] of 9.46 µM.
Turning to `COC(=O)C1=C(C2CCN(c3ncc(C(=O)O)s3)CC2)NC(c2nccs2)=NC1c1ccc(F)c(F)c1Cl` (single isomer, unassigned) [II-30-B, 2-(4-(6-(2-Chloro-3,4-difluorophenyl)-5-(methoxycarbonyl)-2-(thiazol-2-yl)-3,6-dihydropyrimidin-4-yl)piperidin-1-yl)thiazole-5-carboxylic Acid], in the data set with HBV, the EC50 amounted to 0.0072 µM. In data set [1], this compound registered a CC50 at 6 days of 16 µM.
As for `COC(=O)C1=C(C2CCN(c3nc(C(F)(F)F)c(C(=O)O)s3)CC2)NC(c2nccs2)=NC1c1ccc(F)c(F)c1Cl` (single isomer, unassigned) [II-31-B, 2-(4-(6-(2-Chloro-3,4-difluorophenyl)-5-(methoxycarbonyl)-2-(thiazol-2-yl)-3,6-dihydropyrimidin-4-yl)piperidin-1-yl)-4-(trifluoromethyl)thiazole-5-carboxylic Acid], the EC50 in the data set with HBV was 0.025 µM. In data set [1], this compound showed a CC50 at 6 days of 2.61 µM.
Consider `COC(=O)C1=C(C2CCN(c3nc(C(=O)O)cs3)CC2)NC(c2nccs2)=NC1c1ccc(F)c(F)c1Cl` (single isomer, unassigned) [II-32-B, 2-(4-(6-(2-Chloro-3,4-difluorophenyl)-5-(methoxycarbonyl)-2-(thiazol-2-yl)-3,6-dihydropyrimidin-4-yl)piperidin-1-yl)thiazole-4-carboxylic Acid], for which the EC50 in the data set with HBV was determined as 0.046 µM. The compound also showed a CC50 at 6 days in data set [1] of 11.1 µM.
As for `COC(=O)C1=C(C2CCN(c3nc(C(=O)O)co3)CC2)NC(c2nccs2)=NC1c1ccc(F)c(F)c1Cl` (single isomer, unassigned) [II-33-B, 2-(4-(6-(2-Chloro-3,4-difluorophenyl)-5-(methoxycarbonyl)-2-(thiazol-2-yl)-3,6-dihydropyrimidin-4-yl)piperidin-1-yl)oxazole-4-carboxylic Acid], in the data set with HBV, the EC50 turned out to be 0.045 µM. For the same compound, the CC50 at 6 days in data set [1] was 18.6 µM.
For `CCOC(=O)C1=C(C2CCN(c3ccc(C(=O)O)cc3)CC2)NC(c2nccs2)=NC1c1ccc(F)c(F)c1Cl` (single isomer, unassigned) [II-35-A, 4-(4-(6-(2-Chloro-3,4-difluorophenyl)-5-(ethoxycarbonyl)-2-(thiazol-2-yl)-3,6-dihydropyrimidin-4-yl)piperidin-1-yl)benzoic Acid], the EC50 in the data set on HBV was found to be 0.02 µM. Further, the midpoint of cytotoxicity in data set [1], the CC50 at 6 days, lay at 3.96 µM.
For `CCOC(=O)C1=C(C2CCN(c3cc(O)c(C(=O)O)cn3)CC2)NC(c2nccs2)=NC1c1ccc(F)c(F)c1Cl` (single isomer, unassigned) [II-36-B, 6-(4-(6-(2-chloro-3,4-difluorophenyl)-5-(ethoxycarbonyl)-2-(thiazol-2-yl)-3,6-dihydropyrimidin-4-yl)piperidin-1-yl)-4-hydroxynicotinic Acid], the EC50 in the data set with HBV stood at 0.052 µM. In data set [1], this compound displayed a CC50 at 6 days of 8.65 µM.
On to `CCOC(=O)C1=C(C2CCN(c3cccc(C(=O)O)n3)CC2)NC(c2nccs2)=NC1c1ccc(F)c(F)c1Cl` (single isomer, unassigned) [II-37-B, 6-(4-(6-(2-Chloro-3,4-difluorophenyl)-5-(ethoxycarbonyl)-2-(thiazol-2-yl)-3,6-dihydropyrimidin-4-yl)piperidin-1-yl)picolinic Acid], for which the EC50 in the data set with HBV worked out at 0.061 µM. In data set [1], this compound gave a CC50 at 6 days of 6.41 µM.
For the compound `CCOC(=O)C1=C(C2CCN(c3cc(C(=O)O)cc(C(F)(F)F)n3)CC2)NC(c2nccs2)=NC1c1ccc(F)c(F)c1Cl` (single isomer, unassigned) [II-38-B, 2-(4-(6-(2-chloro-3,4-difluorophenyl)-5-(ethoxycarbonyl)-2-(thiazol-2-yl)-3,6-dihydropyrimidin-4-yl)piperidin-1-yl)-6-(trifluoromethyl)isonicotinic Acid], the EC50 in the data set on HBV was determined as 0.081 µM. For the same compound, the midpoint of cytotoxicity in data set [1], the CC50 at 6 days, lay at 3.88 µM.
`CCOC(=O)C1=C(C2CCN(c3cc(C(=O)O)c(C(F)(F)F)cn3)CC2)NC(c2nccs2)=NC1c1ccc(F)c(F)c1Cl` (single isomer, unassigned) [II-39-B, 2-(4-(6-(2-Chloro-3,4-difluorophenyl)-5-(ethoxycarbonyl)-2-(thiazol-2-yl)-3,6-dihydropyrimidin-4-yl)piperidin-1-yl)-5-(trifluoromethyl)isonicotinic Acid]: the EC50 in the data set with HBV came out at 0.014 µM. Moreover, the CC50 at 6 days in data set [1] was determined as 5.38 µM.
In the case of `CCOC(=O)C1=C(C2CCN(c3nccc(C(=O)O)c3F)CC2)NC(c2nccs2)=NC1c1ccc(F)c(F)c1Cl` (single isomer, unassigned) [II-40-B, 2-(4-(6-(2-Chloro-3,4-difluorophenyl)-5-(ethoxycarbonyl)-2-(thiazol-2-yl)-3,6-dihydropyrimidin-4-yl)piperidin-1-yl)-3-fluoroisonicotinic Acid], the EC50 in the data set with HBV amounted to 0.0091 µM. The compound further returned a CC50 at 6 days in data set [1] of 8.37 µM.
In the same order, the values of `CCOC(=O)C1=C(C2CCN(c3cc(C(=O)O)ccn3)CC2)NC(c2nccs2)=NC1c1ccc(F)c(F)c1Cl` (single isomer, unassigned) [II-41-B, 2-(4-(6-(2-Chloro-3,4-difluorophenyl)-5-(ethoxycarbonyl)-2-(thiazol-2-yl)-3,6-dihydropyrimidin-4-yl)piperidin-1-yl)isonicotinic Acid] are 0.0052 µM and 10.2 µM.
With `CCOC(=O)C1=C(C2CCN(c3ccc(C(=O)O)nc3Cl)CC2)NC(c2nccs2)=NC1c1ccc(F)c(F)c1Cl` (single isomer, unassigned) [II-42-B, 6-Chloro-5-(4-(6-(2-chloro-3,4-difluorophenyl)-5-(ethoxycarbonyl)-2-(thiazol-2-yl)-3,6-dihydropyrimidin-4-yl)piperidin-1-yl)picolinic Acid], in the data set with HBV, the EC50 amounted to 0.056 µM. The CC50 at 6 days in data set [1] came out at 2.57 µM.
Take `CCOC(=O)C1=C(C2CCN(c3ccc(C(=O)O)cn3)CC2)NC(c2nccs2)=NC1c1ccc(F)c(F)c1Cl` (single isomer, unassigned) [II-43-B, 6-(4-(6-(2-Chloro-3,4-difluorophenyl)-5-(ethoxycarbonyl)-2-(thiazol-2-yl)-3,6-dihydropyrimidin-4-yl)piperidin-1-yl)nicotinic Acid]: in the data set on HBV, the half-maximal effective concentration (EC50) is 0.016 µM. In data set [1], this compound had a CC50 at 6 days of 11.4 µM.
Consider `CCOC(=O)C1=C(C2CCN(c3cc(C(F)(F)F)c(C(=O)O)cn3)CC2)NC(c2nccs2)=NC1c1ccc(F)c(F)c1Cl` (single isomer, unassigned) [II-44-B, 6-(4-(6-(2-Chloro-3,4-difluorophenyl)-5-(ethoxycarbonyl)-2-(thiazol-2-yl)-3,6-dihydropyrimidin-4-yl)piperidin-1-yl)-4-(trifluoromethyl)nicotinic Acid], for which the EC50 in the data set with HBV was found to be 0.0076 µM. The compound further displayed a CC50 at 6 days in data set [1] of 4.77 µM.

The values are drawn from patent publication US11053235B2, “Substituted 1,4-dihydropyrimidines for the treatment of HBV infection or HBV-induced diseases” (Janssen Sciences Ireland Unlimited Company, priority 2018, dated 2021).
